Measurements published in ChEMBL document CHEMBL2069231, “Combining pharmacophore, docking and substructure search approaches to identify and optimize novel B-RafV600E inhibitors” (Bioorg Med Chem Lett, 2012).

Assays:
[1] = test system: Serine/threonine-protein kinase B-raf (Homo sapiens), P15056 [V600E]; experiment: Inhibition of BRAF V600E mutant at 1 uM by ELISA
[2] = test system: Serine/threonine-protein kinase B-raf (Homo sapiens), P15056 [V600E]; experiment: Inhibition of BRAF V600E mutant at 10 uM by ELISA
[3] = biological target: Serine/threonine-protein kinase B-raf (Homo sapiens, UniProt P15056, V600E); experiment: Inhibition of BRAF V600E mutant by ELISA
Chain of Serine/threonine-protein kinase B-raf (P15056 2-766 V600E limits assumed): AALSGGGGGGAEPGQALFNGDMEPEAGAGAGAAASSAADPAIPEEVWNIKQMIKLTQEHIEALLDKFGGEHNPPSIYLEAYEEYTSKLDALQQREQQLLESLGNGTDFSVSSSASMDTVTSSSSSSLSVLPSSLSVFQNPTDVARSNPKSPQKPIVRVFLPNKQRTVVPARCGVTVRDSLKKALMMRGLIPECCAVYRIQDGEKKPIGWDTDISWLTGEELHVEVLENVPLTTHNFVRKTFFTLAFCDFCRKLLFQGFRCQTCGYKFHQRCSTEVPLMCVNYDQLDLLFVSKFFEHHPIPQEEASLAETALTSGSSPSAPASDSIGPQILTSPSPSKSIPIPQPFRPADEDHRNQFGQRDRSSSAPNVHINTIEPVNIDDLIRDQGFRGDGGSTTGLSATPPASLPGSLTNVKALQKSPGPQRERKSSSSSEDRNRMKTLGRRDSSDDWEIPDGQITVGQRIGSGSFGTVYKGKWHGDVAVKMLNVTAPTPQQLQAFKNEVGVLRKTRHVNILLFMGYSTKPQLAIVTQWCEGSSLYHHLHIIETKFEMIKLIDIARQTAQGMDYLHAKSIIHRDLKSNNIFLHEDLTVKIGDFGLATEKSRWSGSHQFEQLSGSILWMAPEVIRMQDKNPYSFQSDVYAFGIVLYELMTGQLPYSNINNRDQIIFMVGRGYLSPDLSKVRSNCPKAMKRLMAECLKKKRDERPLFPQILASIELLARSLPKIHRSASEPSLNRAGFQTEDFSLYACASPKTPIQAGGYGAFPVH

Chain of Serine/threonine-protein kinase B-raf (Homo sapiens), P15056 [V600E] (P15056 whole entry V600E): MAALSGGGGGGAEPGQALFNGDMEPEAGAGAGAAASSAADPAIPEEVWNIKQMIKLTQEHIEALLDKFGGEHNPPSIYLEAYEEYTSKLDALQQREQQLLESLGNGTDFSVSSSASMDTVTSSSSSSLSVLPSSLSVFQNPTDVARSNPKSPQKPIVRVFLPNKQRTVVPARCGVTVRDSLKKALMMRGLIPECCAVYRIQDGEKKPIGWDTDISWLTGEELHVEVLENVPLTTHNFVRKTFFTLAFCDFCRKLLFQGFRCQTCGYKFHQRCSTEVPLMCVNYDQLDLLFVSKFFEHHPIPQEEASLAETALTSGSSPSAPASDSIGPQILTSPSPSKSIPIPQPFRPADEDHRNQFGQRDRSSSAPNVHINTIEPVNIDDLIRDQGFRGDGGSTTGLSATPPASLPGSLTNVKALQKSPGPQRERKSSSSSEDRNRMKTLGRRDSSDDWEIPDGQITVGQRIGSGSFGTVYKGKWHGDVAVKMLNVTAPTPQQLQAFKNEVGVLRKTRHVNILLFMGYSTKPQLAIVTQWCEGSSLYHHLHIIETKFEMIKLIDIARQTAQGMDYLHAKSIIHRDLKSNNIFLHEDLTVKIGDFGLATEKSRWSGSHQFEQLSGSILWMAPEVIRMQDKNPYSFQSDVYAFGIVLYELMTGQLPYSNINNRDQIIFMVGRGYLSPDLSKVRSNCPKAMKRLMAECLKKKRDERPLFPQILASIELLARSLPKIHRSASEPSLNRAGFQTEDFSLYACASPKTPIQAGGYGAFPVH

Structure (SMILES)	inhibition [1] [%]	inhibition [2] [%]	IC50 [3] [nM]
O=C1NC(=S)NC(=O)C1=Cc1ccc(Oc2ccc([N+](=O)[O-])cn2)cc1	< 5	41	–
O=C1NC(=S)NC(=O)C1=Cc1ccc(-c2cccc([N+](=O)[O-])c2)o1	48	85	830
Cc1c(Cl)cccc1N1C(=O)/C(=C\c2ccc(-c3ccc(C(=O)O)cc3)o2)C(=O)NC1=S	38	100	2490
Cc1ccc(N2C(=O)/C(=C\c3ccc(-c4ccc(Cl)c(C(=O)O)c4)o3)C(=O)NC2=S)cc1	5	71	–
O=C1NC(=S)N(c2ccc(Br)cc2)C(=O)/C1=C\c1ccc(-c2ccccc2C(=O)O)o1	32	100	3450
CCOc1cc(C=C2C(=O)NC(=S)NC2=O)ccc1O	15	68	–
Cc1ccc([N+](=O)[O-])cc1-c1ccc(C=C2C(=O)NC(=S)NC2=O)o1	51	57	–
COC(=O)c1ccccc1-c1ccc(/C=C2/C(=O)NC(=S)N(c3ccc(C)cc3)C2=O)o1	37	88	1650
CCOc1ccc(N2C(=O)/C(=C\c3ccc(CN(CCC#N)S(C)(=O)=O)o3)C(=O)NC2=S)cc1	43	91	1140
Cc1ccc(N2C(=O)/C(=C\c3ccc(CN(CCC#N)S(C)(=O)=O)o3)C(=O)NC2=S)cc1Cl	68	99	310
O=C1NC(=S)N(c2ccc(Br)cc2)C(=O)/C1=C\c1ccc(-c2cccc(C(=O)O)c2)o1	43	100	1800
O=C1NC(=S)NC(=O)C1=Cc1ccc(-c2ccc([N+](=O)[O-])cc2)o1	59	91	730
O=C1NC(=S)N(c2ccc(Br)cc2)C(=O)/C1=C\c1ccc(-c2ccc(C(=O)O)cc2)o1	38	97	2230
CCN(C)c1ccc(-c2ccc(C=C3C(=O)NC(=S)NC3=O)cc2)cc1	< 5	< 5	–
O=C1NC(=S)NC(=O)C1=Cc1ccc(OCC(=O)N2CCCC2)cc1	9	52	–
O=C1NC(=S)N(c2cccc(Cl)c2Cl)C(=O)/C1=C\c1ccc(-c2ccc(C(=O)O)cc2)o1	46	100	1540
CCCS(=O)(=O)Nc1ccc(F)c(C(=O)c2c[nH]c3ncc(-c4ccc(Cl)cc4)cc23)c1F	72	92	–
Cc1ccc(N2C(=O)/C(=C\c3ccc(-c4ccc(C(=O)O)c(Cl)c4)o3)C(=O)NC2=S)cc1	28	99	3240
COc1cc(C=C2C(=O)NC(=S)NC2=O)ccc1OC(F)F	14	17	–
Cc1cccc(N2C(=O)/C(=C\c3ccc(CN(CCC#N)S(C)(=O)=O)o3)C(=O)NC2=S)c1	55	84	500
O=C1NC(=S)NC(=O)C1=Cc1ccc(OCc2ccccc2)c(Cl)c1	31	91	–
Cc1cccc(C)c1OCCOc1ccc(C=C2C(=O)NC(=S)NC2=O)cc1	42	95	–
COc1ccc(C=C2C(=O)NC(=S)NC2=O)cc1OC(=O)c1ccccc1	46	77	4010

Structure (SMILES)	inhibition [1] [%]	inhibition [2] [%]	IC50 [3] [nM]
COc1ccc(C=C2C(=O)NC(=S)NC2=O)cc1OC(=O)c1ccc(C)cc1	< 5	38	–
Cc1ccc(N2C(=O)/C(=C\c3ccc(-c4ccc(C(=O)O)cc4)o3)C(=O)NC2=S)cc1	35	97	1600
CCOc1ccc(C=C2C(=O)NC(=S)NC2=O)cc1Cl	12	71	–
CC(C)COC(=O)c1ccc(-c2ccc(C=C3C(=O)NC(=S)NC3=O)o2)cc1	31	37	–
CCOC(=O)c1ccccc1-c1ccc(/C=C2/C(=O)NC(=S)N(c3ccc(C)cc3)C2=O)o1	56	88	1020
CS(=O)(=O)N(CCC#N)Cc1ccc(/C=C2/C(=O)NC(=S)N(c3ccc(Cl)c(Cl)c3)C2=O)o1	60	97	820
CS(=O)(=O)N(CCC#N)Cc1ccc(/C=C2/C(=O)NC(=S)N(c3ccc(Br)cc3)C2=O)o1	88	96	440
COc1ccc(C=C2C(=O)NC(=S)NC2=O)cc1OCc1ccc(Br)cc1	12	87	–
COc1ccc(C=C2C(=O)NC(=S)NC2=O)cc1OC(=O)c1cccc(Cl)c1	9	88	–
COc1cccc(N2C(=O)/C(=C\c3ccc(CN(CCC#N)S(C)(=O)=O)o3)C(=O)NC2=S)c1	32	74	1840
COc1cc(C=C2C(=O)NC(=S)NC2=O)ccc1OCCC(C)C	21	81	–
COc1cc(C=C2C(=O)NC(=S)NC2=O)ccc1OC(=O)c1cccc(F)c1	< 5	28	–
O=C1NC(=S)N(c2ccc(Br)cc2)C(=O)/C1=C\c1ccc(-c2ccc(C(=O)O)c(Cl)c2)o1	28	89	4750
COc1cc(C=C2C(=O)NC(=S)NC2=O)ccc1OCCO	< 5	34	–
CCOc1cc(C=C2C(=O)NC(=S)NC2=O)ccc1OCC(=O)Nc1cccc(C)c1	23	81	–
COC(=O)c1cc(Br)ccc1-c1ccc(C=C2C(=O)NC(=S)NC2=O)o1	61	86	–
O=C1NC(=S)NC(=O)C1=Cc1ccc(-c2ccccc2[N+](=O)[O-])o1	55	93	670
O=C1NC(=S)NC(=O)C1=Cc1cccc(OC(=O)c2cccc(F)c2)c1	17	19	–
Cc1ccc(N2C(=O)/C(=C\c3ccc(-c4cccc(C(=O)O)c4)o3)C(=O)NC2=S)cc1	33	98	4020
Cc1ccc(N2C(=O)/C(=C\c3ccc(-c4ccc(F)cc4)o3)C(=O)NC2=S)cc1	13	74	4110
Cc1ccc(Cl)cc1-c1ccc(C=C2C(=O)NC(=S)NC2=O)o1	54	75	–
N#Cc1ccccc1-c1ccc(C=C2C(=O)NC(=S)NC2=O)o1	60	93	740
Cc1ccc(N2C(=O)/C(=C\c3ccc(CN(CCC#N)S(C)(=O)=O)o3)C(=O)NC2=S)cc1	48	99	970
